Tests used:
α-D-glucosidase (yeast) [1] = target: T1, α-D-glucosidase (yeast) (Saccharomyces cerevisiae, UniProt P53341); experiment: Glycosidase inhibition (Table 2 panel); format: biochemical
T1 construct: purchased Sigma-Aldrich
Excerpt: (§1) The enzymes α-D-glucosidase (yeast), β-D-glucosidases (almond, bovine liver), α-D-galactosidase (coffee beans), β-D-galactosidase (bovine liver), α-D-mannosidase (Jack bean), β-D-mannosidase (snail), α-L-rhamnosidase (P. decumbens), α-L-fucosidase (bovine kidney), trehalase (porcine kidney), β-D-glucuronidases (E. coli, bovine liver), amyloglucosidase (A. niger), para-nitrophenyl glycosides, and various disaccharides were purchased from Sigma-Aldrich Co (St. Louis, MO, USA).
(§2) Brush border membranes were prepared from the rat small intestine according to the method of Kessler et al., and were assayed at pH 6.8 for rat intestinal maltase using maltose. […] The reaction was stopped by heating at 100 °C for 3 min. After centrifugation (600 g; 10 min), the resulting reaction mixture was added to the Glucose CII-test Wako (Wako Pure Chemical Ind., Osaka, Japan). […] Other glycosidase activities were determined using an appropriate para-nitrophenyl glycoside as substrate at the optimum pH of each enzyme. The reaction mixture contained the substrate ([…]) and the appropriate amount of enzyme. The reaction was stopped by the addition of Na2CO3 (400 μM). The released para-nitrophenol was measured spectrometrically at 400 nm. All reactions were run in methanol.

[2] = system: T2, amyloglucosidase (A. niger); experiment: Glycosidase inhibition (Table 2 panel); format: biochemical
T2 construct: purchased Sigma-Aldrich
Excerpt: as §1, §2

[3] = system: T3, β-D-glucuronidase (E. coli); experiment: Glycosidase inhibition (Table 2 panel); format: biochemical
T3 construct: purchased Sigma-Aldrich
Excerpt: as §1, §2

β-D-glucosidase (almond) = experiment: Glycosidase inhibition (Table 3 panel); format: biochemical; details: 1 mg/mL aqueous solution; run in water
Procedure: (§3) All enzymes and para-nitrophenyl substrates were purchased from Sigma. Enzymes were assayed at 27 °C in citric acid (0.1 M)/disodium hydrogen phosphate (0.2 M) buffers at the optimum pH for the enzyme. The incubation mixture consisted of […] of 1 mg/mL aqueous solution of extract and […] of the appropriate […] para-nitrophenyl substrate made up in buffer at the optimum pH for the enzyme. The reactions were stopped by addition of […] 0.4 M glycine (pH 10.4) during the exponential phase of the reaction, which had been determined at the beginning using uninhibited assays in which water replaced the inhibitor. Final absorbances were read at 405 nm using a Versamax microplate reader (Molecular Devices, Wokingham, UK). Assays were carried out in triplicate, and the values given are means of the three replicates per assay. All reactions were run in water.

[4] = system: β-D-glucuronidase (bovine liver); experiment: Glycosidase inhibition (Table 3 panel); format: biochemical; details: 1 mg/mL aqueous solution; run in water
Procedure: as §3

α-D-glucosidase (yeast) [5] = target: T1, α-D-glucosidase (yeast); experiment: Glycosidase inhibition (Table 3 panel); format: biochemical; details: 1 mg/mL aqueous solution, run in water; for inhibition at 1000 µg/mL (stock): read-out: Percentage inhibition α-D-Glucosidase Yeast
Procedure: All enzymes and para-nitrophenyl substrates were purchased from Sigma. Enzymes were assayed at 27 °C in citric acid (0.1 M)/disodium hydrogen phosphate (0.2 M) buffers at the optimum pH for the enzyme. The incubation mixture consisted of […] of 1 mg/mL aqueous solution of extract and […] of the appropriate 5 μM para-nitrophenyl substrate made up in buffer at the optimum pH for the enzyme. […] Assays were carried out in triplicate, and the values given are means of the three replicates per assay. All reactions were run in water.

A431 (skin carcinoma) = experiment: Cancer screening, MTT growth inhibition; format: cell-based; details: Homo sapiens; for inhibition at 25 µM: A-431, 25 µM of drug, 72 h, read-out: DOSE SCREEN percentage (%) cell growth inhibition A431 Skin; for GI50: A-431, 72 h, read-out: DOSE RESPONSE GI50 A431 Skin
Outline: (§4)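 Growth inhibition is reported as mean ± SEM from three replicates run on separate occasions and cell passages. Cells grew in DMEM with 10% foetal bovine serum at 37 °C under 5% CO2 and were treated 24 h after seeding at 2500–4000 cells/well.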

[6] = system: HT29 (colorectal carcinoma); experiment: Cancer screening, MTT growth inhibition; format: cell-based; details: Homo sapiens; for inhibition at 25 µM: HT-29, 25 µM of drug, 72 h, read-out: DOSE SCREEN percentage (%) cell growth inhibition HT29 Colon; for GI50: HT-29, 72 h, read-out: DOSE RESPONSE GI50 HT29 Colon
Outline: as §4

[7] = system: T4, α-L-fucosidase (bovine kidney); experiment: Glycosidase inhibition (Table 2 panel); format: biochemical; details: at 1000 μM
T4 construct: purchased Sigma-Aldrich; host or cells: bovine kidney
Outline: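 Absorbance at 400 nm quantified para-nitrophenol liberated from […] para-nitrophenyl glycoside substrate, at the optimal pH for each enzyme […]. Na2CO3 […] terminated the reactions.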

[8] = read-out: inhibition % α-D-Glucosidase Yeast

T1 sequence (P53341 whole entry): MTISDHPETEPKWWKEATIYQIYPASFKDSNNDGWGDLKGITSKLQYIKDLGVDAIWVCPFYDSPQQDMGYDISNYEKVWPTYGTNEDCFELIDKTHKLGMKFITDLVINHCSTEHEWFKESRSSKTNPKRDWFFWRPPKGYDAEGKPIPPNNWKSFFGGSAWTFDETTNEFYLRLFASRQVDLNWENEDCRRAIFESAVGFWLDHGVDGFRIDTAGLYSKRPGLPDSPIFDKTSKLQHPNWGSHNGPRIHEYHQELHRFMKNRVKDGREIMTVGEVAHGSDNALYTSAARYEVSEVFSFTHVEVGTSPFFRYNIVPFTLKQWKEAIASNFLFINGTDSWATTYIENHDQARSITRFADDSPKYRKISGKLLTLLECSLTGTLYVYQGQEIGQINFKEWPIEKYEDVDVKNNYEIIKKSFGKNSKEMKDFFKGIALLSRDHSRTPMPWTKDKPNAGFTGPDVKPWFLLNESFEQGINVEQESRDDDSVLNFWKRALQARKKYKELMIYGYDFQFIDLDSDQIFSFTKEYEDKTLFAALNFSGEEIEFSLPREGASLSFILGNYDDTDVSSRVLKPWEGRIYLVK

SMILES	inhibition at 100 µM (α-D-glucosidase (yeast) [1]; [8])	inhibition at 1000 µM (α-D-glucosidase (yeast) [1]; [8])	inhibition % Amyloglucosidase A. niger ([2]; at 100 μM)	inhibition % Amyloglucosidase A. niger ([2]; at 1000 μM)	inhibition % β-D-Glucuronidase E. coli ([3]; at 100 μM)	inhibition % β-D-Glucuronidase E. coli ([3]; at 1000 μM)	Percentage inhibition β-D-Glucosidase Almond (β-D-glucosidase (almond))	Percentage inhibition β-D-Glucuronidase Bovine Liver [4]	Percentage inhibition α-D-Glucosidase Yeast (α-D-glucosidase (yeast) [5])	inhibition at 1000 µg/mL (stock) (α-D-glucosidase (yeast) [5])	inhibition at 25 µM (A431 (skin carcinoma))	GI50 (A431 (skin carcinoma))	inhibition at 25 µM [6]	GI50 [6]	inhibition % α-L-Fucosidase Bovine Kidney [7]	IC50 (α-D-glucosidase (yeast) [1]; listed as of the 1000 μM series)
CC1(C)O[C@H]2O[C@H]3[C@@H]([C@H]2O1)N(Cc1cccc(B2OC(C)(C)C(C)(C)O2)c1)C[C@H]3O [meta 2, N-(3-Methylphenylboronic acid pinacol ester)-3,6-dideoxy-3,6-imino-1,2-O-isopropylidene-α-D-gulofuranose]	8.8%	0%	^cNI ^d(1.4%)	^aNI ^b(0%)	^cNI ^d(13.7%)	^aNI ^b(5.6%)	13.2%	9.9%	7.9%	9.3%	8 ± 6%	> 50 µM	1 ± 10%	> 50 µM	^aNI ^b(3.8%)	
OC[C@H](O)[C@@H]1[C@H](O)[C@H](O)CN1Cc1ccccc1B(O)O [ortho 4, N-(2-Methylphenylboronic acid)-1,4-dideoxy-1,4-imino-L-gulitol]	0%		^cNI ^d(0%)	^aNI ^b(0%)	^cNI ^d(0%)	^aNI ^b(31.8%)	49.8%	2.2%		-6.7%	17 ± 2%	> 50 µM	< 0%	> 50 µM	^aNI ^b(1.3%)	784 µM
